The source made the active and inactive calls. No cut-off for these calls is given here.
Tests used:
Brontispa longissima [1] = test: Antifeedant activity against third-instar larvae of Brontispa longissima at 1 mg/ml after 24 hrs by leaf disk method; type: functional
Brontispa longissima [2] = test: Antifeedant activity against third-instar larvae of Brontispa longissima at 0.5 mg/ml after 24 hrs by leaf disk method; type: functional
Brontispa longissima [3] = test: Antifeedant activity against third-instar larvae of Brontispa longissima at 0.1 mg/ml after 24 hrs by leaf disk method; type: functional
Brontispa longissima [4] = test: Antifeedant activity against third-instar larvae of Brontispa longissima at 1 mg/ml after 48 hrs by leaf disk method; type: functional
Brontispa longissima [5] = test: Antifeedant activity against third-instar larvae of Brontispa longissima at 0.5 mg/ml after 48 hrs by leaf disk method; type: functional
Brontispa longissima [6] = test: Antifeedant activity against third-instar larvae of Brontispa longissima at 0.1 mg/ml after 48 hrs by leaf disk method; type: functional
A2058 = test: Cytotoxicity against human A2058 cells by MTT assay; type: functional, cell-based
G-361 = test: Cytotoxicity against human G361 cells by MTT assay; type: functional, cell-based
DU-145 = test: Cytotoxicity against human DU145 cells by MTT assay; type: functional, cell-based
MDA-MB-468 = test: Cytotoxicity against human MDA-MB-468 cells by MTT assay; type: functional, cell-based
MDA-MB-435 = test: Cytotoxicity against human MDA-MB-435 cells by MTT assay; type: functional, cell-based

Row | SMILES | Activity (Brontispa longissima [1]) [%] | Activity (Brontispa longissima [2]) [%] | Activity (Brontispa longissima [3]) [%] | Activity (Brontispa longissima [4]) [%] | Activity (Brontispa longissima [5]) [%] | Activity (Brontispa longissima [6]) [%] | Activity (A2058) | Activity (G-361) | Activity (DU-145) | Activity (MDA-MB-468) | Activity (MDA-MB-435)
1 | CC1=C(O)C(=O)C[C@@H]2[C@@]3(C)CC[C@](C)(O)C[C@@H]3CC[C@]12C [TAGALSIN P] | 48 | 18 | 14 | 22 | 6 | 2 | inactive | inactive | inactive | inactive | inactive
2 | C=C1C(=O)C=C[C@@H]2[C@@]3(C)CC[C@](C)(O)C[C@@H]3CC[C@]12C [TAGALSIN Q] | 53 | 50 | 23 | 43 | 36 | 30 | inactive | inactive | inactive | inactive | inactive
3 | C[C@]1(C(=O)O)CC[C@@]2(C)[C@@H](CC[C@]3(C)/C(=C/O)C(=O)CC[C@H]23)C1 [TAGALSIN R] | 40 | 37 | 18 | 28 | 30 | 7 | inactive | inactive | inactive | inactive | inactive
4 | C[C@]1(C(=O)CO)CC[C@@]2(C)[C@@H](CC[C@]3(C)/C(=C/O)C(=O)CC[C@H]23)C1 [TAGALSIN S] | 51 | 45 | 25 | 47 | 37 | 36 | inactive | inactive | inactive | inactive | inactive
5 | C[C@]1(C(O)CO)CC[C@@]2(C)[C@@H](CC[C@]3(C)/C(=C/O)C(=O)CC[C@H]23)C1 (stereo partly specified) [TAGALSIN T] | -5 | -11 | -32 | -20 | -31 | -48 | inactive | inactive | inactive | inactive | inactive
6 | C=C1C(=O)CC[C@@H]2[C@@]3(C)CC[C@](C)(C(O)CO)C[C@@H]3CC[C@]12C (stereo partly specified) [TAGALSIN U] | 52 | 41 | 14 | 41 | 31 | 10 | inactive | inactive | inactive | inactive | inactive

— ChEMBL document CHEMBL1268864, “Dolabranes from the Chinese Mangrove, Ceriops tagal” (2010)
